Measurements published in the CheMixHub ionic liquid set.
± gives the uncertainty stated by the source.

Test: xn = mol fraction of the nth substance listed

CCCCCCCCCCCC[P+](CC)(CC)CC.N#Cc1ccc[n-]1 + OCC(O)CO
100 kPa
Details	electrical conductivity, 293.15 K [S/m]	electrical conductivity, 303.15 K [S/m]	electrical conductivity, 313.15 K [S/m]	viscosity, 293.15 K [mPa·s]	viscosity, 298.15 K [mPa·s]	viscosity, 303.15 K [mPa·s]	viscosity, 313.15 K [mPa·s]
x1 = 0.001	0.0008 ± 0.0001	0.0015 ± 0.0001	0.0028 ± 0.0001	–	–	–	–
x1 = 0.003	0.0025 ± 0.0001	0.0035 ± 0.0002	0.0061 ± 0.0003	1352 ± 210	860 ± 130	540 ± 80	214 ± 31
x1 = 0.005	0.0037 ± 0.0002	0.0051 ± 0.0002	0.0091 ± 0.0004	–	–	–	–
x1 = 0.007	0.0052 ± 0.0002	0.0065 ± 0.0003	0.0116 ± 0.0005	–	–	–	–
x1 = 0.01	0.0064 ± 0.0003	0.0076 ± 0.0004	0.0137 ± 0.0006	1415 ± 220	910 ± 140	573 ± 85	230 ± 34
x1 = 0.013	0.0076 ± 0.0003	0.0105 ± 0.0005	0.0192 ± 0.0009	–	–	–	–
x1 = 0.016	0.0081 ± 0.0003	0.0125 ± 0.0006	0.0233 ± 0.0011	–	–	–	–
x1 = 0.021	0.0086 ± 0.0004	0.0154 ± 0.0007	0.0287 ± 0.0012	–	–	–	–
x1 = 0.026	0.0096 ± 0.0004	0.0166 ± 0.0007	0.0312 ± 0.0013	1652 ± 260	1024 ± 160	620 ± 92	254 ± 37
x1 = 0.032	0.0102 ± 0.0005	0.0186 ± 0.0008	0.0342 ± 0.0014	–	–	–	–
x1 = 0.041	0.0111 ± 0.0005	0.0201 ± 0.0009	0.0368 ± 0.0016	2113 ± 330	1316 ± 200	790 ± 120	321 ± 47
x1 = 0.049	0.0122 ± 0.0006	0.0233 ± 0.0011	0.0429 ± 0.0019	–	–	–	–
x1 = 0.056	0.0129 ± 0.0006	0.0252 ± 0.0014	0.0463 ± 0.002	2377 ± 380	1481 ± 230	910 ± 140	364 ± 54
x1 = 0.094	0.014 ± 0.0006	0.0256 ± 0.0011	0.0475 ± 0.002	–	–	–	–
x1 = 0.139	0.012 ± 0.0006	0.0279 ± 0.0012	0.0522 ± 0.0021	2442 ± 390	1568 ± 240	1018 ± 150	442 ± 66
x1 = 0.196	–	–	–	2342 ± 370	1501 ± 230	960 ± 140	423 ± 63
x1 = 0.292	0.0092 ± 0.0005	0.0261 ± 0.0011	0.0495 ± 0.002	1719 ± 270	1114 ± 170	730 ± 110	336 ± 50
x1 = 0.343	0.0092 ± 0.0004	0.0203 ± 0.0009	0.0398 ± 0.0017	1481 ± 230	970 ± 150	658 ± 99	307 ± 45
x1 = 0.426	–	–	–	1086 ± 170	710 ± 110	473 ± 70	230 ± 33
x1 = 0.481	0.0109 ± 0.0005	0.0206 ± 0.0009	0.0404 ± 0.0017	–	–	–	–
x1 = 0.542	–	–	–	940 ± 140	638 ± 95	443 ± 65	231 ± 33
x1 = 0.677	0.0131 ± 0.0006	0.0239 ± 0.0011	0.0453 ± 0.002	860 ± 130	600 ± 89	425 ± 62	214 ± 31
x1 = 0.815	0.0183 ± 0.0008	0.0357 ± 0.0015	0.0635 ± 0.0026	623 ± 93	441 ± 65	321 ± 47	164 ± 24
x1 = 1	0.0267 ± 0.0011	0.0448 ± 0.0019	0.0786 ± 0.0032	422 ± 62	296 ± 43	212 ± 30	117 ± 17

CCCC[P+](CCCC)(CCCC)CCCC.CS(=O)(=O)[O-] + O=S1(=O)CCCC1
101.33 kPa, x1 = 0.5
Details	viscosity [mPa·s]
303.15 K	136 ± 30
313.15 K	84 ± 17
323.15 K	50 ± 10
333.15 K	34.6 ± 7
343.25 K	24.6 ± 5
353.25 K	18.7 ± 3.8
